According to patent publication US8053603B2, “Tetralone-based monoamine reuptake inhibitors” (Sunovion Pharmaceuticals Inc., priority 2006, dated 2011):
Like-named read-outs stand apart in the source and are kept apart here. Each block holds one compound with its values, some of them ahead of it.

Key:
Format in all cases: cell-based
[1] = target: T1, recombinant human dopamine transporter (Homo sapiens, UniProt Q01959); experiment: Dopamine functional uptake assay for human reuptake transporter
T1 construct: expressed in transfected cells; host or cells: CHO-K1 or HEK293
T1 sequence (Q01959 whole entry): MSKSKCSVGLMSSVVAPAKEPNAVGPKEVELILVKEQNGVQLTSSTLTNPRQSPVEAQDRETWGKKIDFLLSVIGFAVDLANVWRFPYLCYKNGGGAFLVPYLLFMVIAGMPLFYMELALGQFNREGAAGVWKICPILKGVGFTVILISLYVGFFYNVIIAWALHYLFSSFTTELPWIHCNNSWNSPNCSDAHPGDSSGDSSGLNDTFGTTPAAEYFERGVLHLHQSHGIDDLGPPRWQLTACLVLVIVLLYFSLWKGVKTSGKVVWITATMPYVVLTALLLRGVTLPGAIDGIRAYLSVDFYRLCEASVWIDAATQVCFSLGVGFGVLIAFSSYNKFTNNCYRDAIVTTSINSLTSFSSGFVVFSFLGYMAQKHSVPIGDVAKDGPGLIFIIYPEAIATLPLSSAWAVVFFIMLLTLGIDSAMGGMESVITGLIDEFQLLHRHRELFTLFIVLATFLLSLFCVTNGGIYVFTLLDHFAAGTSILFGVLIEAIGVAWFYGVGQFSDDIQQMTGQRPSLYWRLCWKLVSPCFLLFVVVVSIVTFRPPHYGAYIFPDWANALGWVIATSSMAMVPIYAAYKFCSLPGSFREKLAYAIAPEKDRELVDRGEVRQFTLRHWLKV
Description: Dopamine Functional Uptake Assay for Human Reuptake Transporter
Either CHO-K1 or HEK293 cells expressing human recombinant dopamine transporter were plated before the assay. Test compound and/or vehicle was preincubated with cells in modified HEPES buffer pH 7.1 or pH 7.4 for 20 minutes at 18 to 25° C. and 50 nM [^3H]dopamine was then added for an additional timed incubation period (10 to 30 minutes). After washing the cells to remove [^3H]dopamine not internalized, the cells were lysed, and the amount of tritium in the lysate was measured using a liquid scintillation counter to determine [^3H]dopamine uptake. Non-specific binding of tritium was measured in a control reaction containing 10 μM nomifensine, and was subtracted from the counts for assays to correct for non-specific binding of tritium. Reduction of [^3H]dopamine uptake by 50 percent or more (≧50%) relative to an uninhibited control reaction indicates significant inhibitory activity.

[2] = target: T2, recombinant human norepinephrine transporter (Homo sapiens, UniProt P23975); experiment: Norepinephrine functional uptake assay for human reuptake transporter; conditions: [3H]norepinephrine uptake, HEK293 or MDCK cells expressing human norepinephrine transporter
T2 construct: expressed in transfected cells; host or cells: HEK293 or MDCK
T2 sequence (P23975 whole entry): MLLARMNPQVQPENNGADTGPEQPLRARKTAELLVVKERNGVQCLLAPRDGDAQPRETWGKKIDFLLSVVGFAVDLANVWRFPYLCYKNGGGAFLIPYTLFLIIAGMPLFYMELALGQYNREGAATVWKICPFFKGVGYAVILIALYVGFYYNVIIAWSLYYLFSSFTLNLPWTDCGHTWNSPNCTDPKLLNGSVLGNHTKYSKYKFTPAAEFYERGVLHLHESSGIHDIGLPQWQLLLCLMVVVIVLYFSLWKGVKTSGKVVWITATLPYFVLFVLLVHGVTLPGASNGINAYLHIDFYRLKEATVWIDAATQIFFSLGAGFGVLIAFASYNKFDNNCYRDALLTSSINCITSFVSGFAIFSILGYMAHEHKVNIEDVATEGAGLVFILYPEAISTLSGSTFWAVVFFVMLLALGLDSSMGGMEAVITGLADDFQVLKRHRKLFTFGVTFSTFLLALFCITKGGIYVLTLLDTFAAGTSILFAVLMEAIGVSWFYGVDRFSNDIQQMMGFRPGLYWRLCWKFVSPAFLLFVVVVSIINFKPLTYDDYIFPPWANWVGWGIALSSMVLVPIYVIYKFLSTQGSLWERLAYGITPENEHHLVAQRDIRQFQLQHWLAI
Description: Norepinephrine Functional Uptake Assay for Human Reuptake Transporter
The cells were plated before the assay. Test compound and/or vehicle was preincubated with cells in modified HEPES buffer pH 7.1 or pH 7.4 for 20 minutes at 18 to 25° C. . […] After the cells were washed to remove [^3H]norepinephrine not internalized, the cells were lysed, and the amount of tritium in the cell lysate was measured using a liquid scintillation counter to determine [^3H]norepinephrine uptake. Non-specific binding of tritium was measured in a control reaction containing 10 μM imipramine (or 10 μM nisoxetine), and was subtracted from the counts for assays to correct for non-specific binding of tritium. Reduction of [^3H]norepinephrine uptake by 50 percent or more (≧50%) relative to an uninhibited control reaction indicates significant inhibitory activity.

[3] = target: T3, recombinant human serotonin transporter (Homo sapiens, UniProt P31645); experiment: Serotonin functional uptake assay for human reuptake transporter; conditions: [3H]serotonin uptake, HEK-293 cells expressing human serotonin transporter; read-out: Human IC50 (nM) SERT
T3 construct: expressed in transfected cells; host or cells: HEK-293
T3 sequence (P31645 whole entry): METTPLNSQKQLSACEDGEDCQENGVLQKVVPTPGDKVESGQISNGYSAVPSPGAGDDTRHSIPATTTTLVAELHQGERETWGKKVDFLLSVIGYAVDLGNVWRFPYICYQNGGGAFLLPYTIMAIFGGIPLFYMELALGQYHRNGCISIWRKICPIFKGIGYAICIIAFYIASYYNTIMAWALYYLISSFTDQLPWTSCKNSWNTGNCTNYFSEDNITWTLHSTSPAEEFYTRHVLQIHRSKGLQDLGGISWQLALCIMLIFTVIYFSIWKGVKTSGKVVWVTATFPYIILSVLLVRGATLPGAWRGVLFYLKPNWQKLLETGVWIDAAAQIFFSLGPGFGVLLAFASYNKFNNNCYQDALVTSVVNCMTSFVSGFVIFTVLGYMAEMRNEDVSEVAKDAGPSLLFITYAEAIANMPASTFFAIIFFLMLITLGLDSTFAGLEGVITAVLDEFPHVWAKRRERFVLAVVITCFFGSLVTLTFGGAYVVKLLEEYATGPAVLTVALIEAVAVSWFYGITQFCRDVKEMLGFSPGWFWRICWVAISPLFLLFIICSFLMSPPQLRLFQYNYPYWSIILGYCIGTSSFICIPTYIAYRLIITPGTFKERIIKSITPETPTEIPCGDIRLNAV
Description: Serotonin Functional Uptake Assay for Human Reuptake Transporter
HEK-293 cells expressing human serotonin transporter were plated before the assay. […] Cells with internalized [^3H]serotonin were washed and the amount of tritium taken into cells is counted using a liquid scintillation counter to determine [^3H]serotonin uptake.

[4] = [3H]dopamine uptake, CHO-K1 or HEK293 cells expressing human dopamine transporter, read-out: Human IC50 (nM) DAT

Compound: N[C@H]1Cc2ccccc2[C@H](c2ccc(Cl)c(Cl)c2)C1 (single isomer, unassigned) [Compound 6b, [4-(3,4-dichlorophenyl)-1,2,3,4-tetrahydro-naphthalen-2-yl]-amine]
IC50 ([1]; Human IC50 (nM) DAT): 408 nM
IC50 ([2]; Human IC50 (nM) NET): 731 nM

Compound: CN[C@H]1Cc2ccccc2[C@H](c2ccc(Cl)c(Cl)c2)C1 (single isomer, unassigned) [Compound 7d, 4-(3,4-dichlorophenyl)-N-methyl-1,2,3,4-tetrahydronaphthalen-2-amine]
IC50 [1, 4]: 72 nM

Compound: CN[C@H]1Cc2ccc(OC)cc2[C@@H](c2ccc(Cl)c(Cl)c2)C1 (single isomer, unassigned) [Compound 32a.2, 4-(3,4-dichlorophenyl)-6-methoxy-N-methyl-1,2,3,4-tetrahydronaphthalen-2-amine]
IC50 [3]: 130 nM
IC50 [1, 4]: 415 nM
IC50 ([2]; read-out: Human IC50 (nM) NET): 467 nM

Compound: CC(N)C1=Cc2ccccc2[C@H](c2ccc(Cl)c(Cl)c2)C1 (single isomer, unassigned) [Compound 46]
IC50 [3]: 50 nM
IC50 [1, 4]: 1660 nM
IC50 ([2]; Human IC50 (nM) NET): 580 nM

Compound: CC1(C)C[C@@H](c2ccc(Cl)c(Cl)c2)c2ccccc2C1N (stereo partly drawn) [Compound 59, (4S)-4-(3,4-dichlorophenyl)-2,2-dimethyl-1,2,3,4-tetrahydronaphthalen-1-amine]
IC50 [3]: 5500 nM
IC50 [1, 4]: 1080 nM
IC50 ([2]; read-out: Human IC50 (nM) NET): > 10000 nM

Compound: N[C@H]1Cc2ccccc2[C@H](c2ccc(Cl)c(Cl)c2)C1 (single isomer, unassigned) [Compound 6d, [4-(3,4-dichlorophenyl)-1,2,3,4-tetrahydro-naphthalen-2-yl]-amine]
IC50 ([1]; Human IC50 (nM) DAT): 175 nM
IC50 ([2]; Human IC50 (nM) NET): 174 nM

Compound: COc1ccc2c(c1)C(c1ccc(Cl)c(Cl)c1)CC(N(C)C)C2 (single isomer, unassigned) [Compound 33a.2, 4-(3,4-dichlorophenyl)-6-methoxy-N,N-dimethyl-2,3,4-tetrahydronaphthalen-2-amine]
IC50 [3]: 156 nM
IC50 [1, 4]: 396 nM
IC50 ([2]; read-out: Human IC50 (nM) NET): 2260 nM

Compound: CN(C)CC1Cc2ccccc2C(c2ccc(Cl)c(Cl)c2)C1 (single isomer, unassigned) [Compound 16a, [4-(3,4-dichlorophenyl)-1,2,3,4-tetrahydro-naphthalen-2-ylmethyl]-dimethylamine]
IC50 ([2]; Human IC50 (nM) NET): 565 nM

Compound: CC(N)[C@@H]1Cc2ccccc2[C@H](c2ccc(Cl)c(Cl)c2)C1 (stereo partly drawn) [Compound 51, 1-((2S,4S)-4-(3,4-dichlorophenyl)-1,2,3,4-tetrahydronaphthalen-2-yl)ethanamine]
IC50 [3]: 2 nM
IC50 [1, 4]: 30 nM
IC50 ([2]; Human IC50 (nM) NET): 12 nM

Compound: N[C@H]1Cc2ccccc2[C@H](c2ccc(Cl)c(Cl)c2)C1 (single isomer, unassigned) [Compound 6c, [4-(3,4-dichlorophenyl)-1,2,3,4-tetrahydro-naphthalen-2-yl]-amine]
IC50 ([1]; Human IC50 (nM) DAT): 894 nM
IC50 ([2]; Human IC50 (nM) NET): 855 nM

Compound: CN(C)[C@H]1Cc2ccccc2[C@H](c2ccc(Cl)c(Cl)c2)C1 (single isomer, unassigned) [Compound 8d, [4-(3,4-dichlorophenyl)-1,2,3,4-tetrahydro-naphthalen-2-yl]-dimethylamine]
IC50 [1, 4]: 319 nM
IC50 ([2]; Human IC50 (nM) NET): 98 nM

Compound: CN(C)[C@H]1CCc2ccccc2[C@H]1c1ccc(Cl)c(Cl)c1 (single isomer, unassigned) [Compound 37d, 1-(3,4-dichlorophenyl)-N,N-dimethyl-1,2,3,4-tetrahydronaphthalen-2-amine]
IC50 [3]: 3150 nM
IC50 [1, 4]: 36 nM
IC50 ([2]; read-out: Human IC50 (nM) NET): 1010 nM

Compound: COc1ccc2c(c1)C(c1ccc(Cl)c(Cl)c1)CC(N(C)C)C2 (single isomer, unassigned) [Compound 33a.4, 4-(3,4-dichlorophenyl)-6-methoxy-N,N-dimethyl-2,3,4-tetrahydronaphthalen-2-amine]
IC50 [3]: 808 nM
IC50 [1, 4]: 1410 nM
IC50 ([2]; read-out: Human IC50 (nM) NET): 1700 nM

Compound: CN(C)C1CC(c2ccc(Cl)c(Cl)c2)c2ccccc2C1O (single isomer, unassigned) [Compound 23b, 4-(3,4-dichlorophenyl)-2-(dimethylamino)-1,2,3,4-tetrahydronaphthalen-1-ol]
IC50 [3]: 1300 nM
IC50 [1, 4]: 67 nM
IC50 ([2]; Human IC50 (nM) NET): 48 nM

Compound: CNC[C@H]1Cc2ccccc2[C@H](c2ccc(Cl)c(Cl)c2)C1 (single isomer, unassigned) [Compound 15d, [4-(3,4-dichlorophenyl)-1,2,3,4-tetrahydro-naphthalen-2-ylmethyl]-methylamine]
IC50 [1, 4]: 484 nM
IC50 ([2]; Human IC50 (nM) NET): 372 nM

IC50 [1, 4]: 88 nM
IC50 ([2]; read-out: Human IC50 (nM) NET): 745 nM
Compound: CN[C@H]1CCc2ccccc2[C@H]1c1ccc(Cl)c(Cl)c1 (single isomer, unassigned) [Compound 36c, 1-(3,4-dichlorophenyl)-N-methyl-1,2,3,4-tetrahydronaphthalen-2-amine]

IC50 [1, 4]: 511 nM
IC50 ([2]; read-out: Human IC50 (nM) NET): 3450 nM
Compound: CN[C@H]1CCc2ccccc2[C@H]1c1ccc(Cl)c(Cl)c1 (single isomer, unassigned) [Compound 36a, 1-(3,4-dichlorophenyl)-N-methyl-1,2,3,4-tetrahydronaphthalen-2-amine]

Compound: CN(C)[C@H]1Cc2ccccc2[C@H](c2ccc(Cl)c(Cl)c2)C1 (single isomer, unassigned) [Compound 8c, [4-(3,4-dichlorophenyl)-1,2,3,4-tetrahydro-naphthalen-2-yl]-dimethylamine]
IC50 [1, 4]: 273 nM
IC50 ([2]; Human IC50 (nM) NET): 164 nM

Compound: CN[C@H]1Cc2ccccc2[C@H](c2ccc(Cl)c(Cl)c2)C1 (single isomer, unassigned) [Compound 7b, 4-(3,4-dichlorophenyl)-N-methyl-1,2,3,4-tetrahydronaphthalen-2-amine]
IC50 [1, 4]: 62 nM

IC50 [1, 4]: 204 nM
IC50 ([2]; read-out: Human IC50 (nM) NET): 1620 nM
Compound: CN[C@H]1CCc2ccccc2[C@H]1c1ccc(Cl)c(Cl)c1 (stereo in doubt) [Compound 36d, 1-(3,4-dichlorophenyl)-N-methyl-1,2,3,4-tetrahydronaphthalen-2-amine]

Compound: CNC[C@H]1Cc2ccccc2[C@H](c2ccc(Cl)c(Cl)c2)C1 (single isomer, unassigned) [Compound 15c, [4-(3,4-dichlorophenyl)-1,2,3,4-tetrahydro-naphthalen-2-ylmethyl]-methylamine]
IC50 [1, 4]: 111 nM
IC50 ([2]; Human IC50 (nM) NET): 210 nM

Compound: CN(C)CC1Cc2ccccc2C(c2ccc(Cl)c(Cl)c2)C1 (single isomer, unassigned) [Compound 16b, [4-(3,4-dichlorophenyl)-1,2,3,4-tetrahydro-naphthalen-2-ylmethyl]-dimethylamine]
IC50 ([2]; Human IC50 (nM) NET): 309 nM

IC50 ([2]; read-out: Human IC50 (nM) NET): 7090 nM
Compound: CN[C@H]1CCc2ccccc2[C@H]1c1ccc(Cl)c(Cl)c1 (single isomer, unassigned) [Compound 36b, 1-(3,4-dichlorophenyl)-N-methyl-1,2,3,4-tetrahydronaphthalen-2-amine]

Compound: CN[C@H]1Cc2ccccc2[C@H](c2ccc(Cl)c(Cl)c2)C1 (single isomer, unassigned) [Compound 7c, 4-(3,4-dichlorophenyl)-N-methyl-1,2,3,4-tetrahydronaphthalen-2-amine]
IC50 [1, 4]: 281 nM

Compound: N[C@H]1Cc2ccccc2[C@H](c2ccc(Cl)c(Cl)c2)C1 [Compound 6a, [4-(3,4-dichlorophenyl)-1,2,3,4-tetrahydro-naphthalen-2-yl]-amine]
IC50 ([1]; read-out: Human IC50 (nM) DAT): 350 nM
IC50 ([2]; read-out: Human IC50 (nM) NET): 124 nM

Compound: CN(C)[C@H]1Cc2ccccc2[C@H](c2ccc(Cl)c(Cl)c2)C1 (single isomer, unassigned) [Compound 8b, [4-(3,4-dichlorophenyl)-1,2,3,4-tetrahydro-naphthalen-2-yl]-dimethylamine]
IC50 [1, 4]: 176 nM
IC50 ([2]; Human IC50 (nM) NET): 174 nM

Compound: CNC[C@H]1Cc2ccccc2[C@H](c2ccc(Cl)c(Cl)c2)C1 (single isomer, unassigned) [Compound 15b, [4-(3,4-dichlorophenyl)-1,2,3,4-tetrahydro-naphthalen-2-ylmethyl]-methylamine]
IC50 [1, 4]: 103 nM
IC50 ([2]; Human IC50 (nM) NET): 126 nM

Compound: CN[C@H]1Cc2ccccc2[C@H](c2ccc(Cl)c(Cl)c2)C1 [Compound 7a, 4-(3,4-dichlorophenyl)-N-methyl-1,2,3,4-tetrahydronaphthalen-2-amine]
IC50 [1, 4]: 114 nM

Compound: CN(C)[C@H]1Cc2ccccc2[C@H](c2ccc(Cl)c(Cl)c2)C1 [Compound 8a, [4-(3,4-dichlorophenyl)-1,2,3,4-tetrahydro-naphthalen-2-yl]-dimethylamine]
IC50 [1, 4]: 454 nM
IC50 ([2]; read-out: Human IC50 (nM) NET): 167 nM

Compound: CNC[C@H]1Cc2ccccc2[C@H](c2ccc(Cl)c(Cl)c2)C1 [Compound 15a, [4-(3,4-dichlorophenyl)-1,2,3,4-tetrahydro-naphthalen-2-ylmethyl]-methylamine]
IC50 [1, 4]: 125 nM
IC50 ([2]; read-out: Human IC50 (nM) NET): 72 nM
